Data reported in US10300140B2, “Sur-binding proteins against ERBB3” (I2 PHARMACEUTICALS, INC., priority 2012, dated 2019).

Tested on: SKBR3 and BT474 cells
Test: Enhancement of MK-2206 in SKBR3 and BT474 proliferation
Format: cell-based, human
Settings: 0.125 or 0.375 nM NRG; single agent
Experimental: The ability of the SgGs to enhance AKT inhibition in unstimulated or NRG-stimulated SKBR3 cells was compared. An AKT inhibitor, MK-2206, was tested against the ErbB2 overexpressing cell lines SKBR3 (13I, 13J) and BT474 (13K, 13L). The indicated amounts of MK-2206 were applied to the cells and they were allowed to proliferate in complete medium containing 10% fetal bovine serum for 6 days (13I, 13K, 13L) or 3 days (13J). Cell content was measured using Cell Titer-Glo® (Promega).

SMILES: NC1(c2ccc(-c3nc4ccn5c(=O)[nH]nc5c4cc3-c3ccccc3)cc2)CCC1 [MK-2206]
- ability to inhibit cell proliferation when cells stimulated with NRG: dramatically reduced
